In ChEMBL document CHEMBL1201862, “PubChem BioAssay data set” (2004):
Activity calls are given as the source filed them. Rule as the data show it, for most assays here: actives have a measured EC50 and inactives only a lower limit.

Experiments:
[1] = target: T1, Heat shock factor protein 1 (Mus musculus, UniProt P38532); test: decrease of HSF1-responsive luciferase luminescence – cell-based, NIH3T3, dose retest, confirmation (AID 2382); assay type: functional;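 also: NIH3T3 fibroblasts with HSF1-driven luciferase reporter stressed by proteasome inhibitor MG132; luminescence from HSF1-driven luciferase expression after 8 hours of MG132 stress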
T1 sequence (P38532 whole entry): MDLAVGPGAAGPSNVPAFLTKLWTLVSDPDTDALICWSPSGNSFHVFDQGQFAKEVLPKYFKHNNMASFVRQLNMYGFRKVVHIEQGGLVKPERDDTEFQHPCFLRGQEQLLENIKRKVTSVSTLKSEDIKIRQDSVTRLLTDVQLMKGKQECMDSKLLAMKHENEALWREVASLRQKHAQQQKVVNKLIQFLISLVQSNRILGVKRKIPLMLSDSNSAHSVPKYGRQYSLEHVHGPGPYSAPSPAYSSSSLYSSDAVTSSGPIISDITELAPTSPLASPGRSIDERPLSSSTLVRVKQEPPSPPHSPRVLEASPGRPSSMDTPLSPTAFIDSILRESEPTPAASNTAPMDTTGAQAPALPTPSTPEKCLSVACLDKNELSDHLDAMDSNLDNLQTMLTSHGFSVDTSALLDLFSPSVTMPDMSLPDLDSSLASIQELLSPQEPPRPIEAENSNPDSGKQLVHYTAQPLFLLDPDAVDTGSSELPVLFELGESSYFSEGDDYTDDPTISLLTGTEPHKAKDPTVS

[2] = target: T2, Ubiquitin-conjugating enzyme E2 N (Homo sapiens, UniProt P61088); assay type: functional;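 also: Dose-response confirmation in a TR-FRET assay detecting UBC13-driven polyubiquitin chain formation, inhibition measured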
T2 sequence (P61088 whole entry): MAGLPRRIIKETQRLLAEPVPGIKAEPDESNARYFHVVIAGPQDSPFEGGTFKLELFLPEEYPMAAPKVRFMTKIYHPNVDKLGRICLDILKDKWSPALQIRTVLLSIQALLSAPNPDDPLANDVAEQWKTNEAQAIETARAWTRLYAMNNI

[3] = tested on: H4; test: Luminescence Cell-Based Dose Response HTS to Identify Activators of 5'UTR Stem-Loop Driven Prion Protein mRNA Translation in H4 Neuroglioblastoma Cells. [Related pubchem assays: 1829 (Project Summary), 1814 (Primary HTS)]; assay type: functional; conditions: Homo sapiens
[4] = Luminescence Cell-Based Dose Response HTS to Identify Activators of Luciferase Translation or Activity in H4 […] Cells. [Related pubchem assays: 1829 (Project Summary), 1814 (Primary HTS)]; assay type: functional
[5] = tested on: INS1; test: INS-1E survival protection against cytokine death – cell-based, luminescence, retest, dose response (AID 449756); assay type: functional; conditions: Rattus norvegicus;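 also: cell death triggered by IL-1 beta plus TNF-alpha plus IFN-gamma mixture; protective hits raise ATP signal compared with cytokine alone wells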
[6] = target: T1, Heat shock factor protein 1; test: enhancement of HSF1-driven luciferase signal – cell-based, NIH3T3, luminescence, dose retest, confirmation (AID 435004); assay type: functional;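 also: stress induced by proteasome inhibitor MG132 added 30 min after compound; luciferase reporter driven by HSF1 response element in NIH3T3 cells; actives raise luminescence as potentiators of the MG132 stress response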
[7] = target: T3, Streptokinase A (Streptococcus pyogenes serotype M1, UniProt P10520); test: viability-normalized secreted streptokinase activity reduction – plasminogen activation absorbance, OD405, dose response (AID 1914); assay type: functional, Streptococcus pyogenes M1 GAS;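 also: secreted streptokinase activity via plasminogen activation per viability signal from cell pellet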
T3 sequence (P10520 whole entry): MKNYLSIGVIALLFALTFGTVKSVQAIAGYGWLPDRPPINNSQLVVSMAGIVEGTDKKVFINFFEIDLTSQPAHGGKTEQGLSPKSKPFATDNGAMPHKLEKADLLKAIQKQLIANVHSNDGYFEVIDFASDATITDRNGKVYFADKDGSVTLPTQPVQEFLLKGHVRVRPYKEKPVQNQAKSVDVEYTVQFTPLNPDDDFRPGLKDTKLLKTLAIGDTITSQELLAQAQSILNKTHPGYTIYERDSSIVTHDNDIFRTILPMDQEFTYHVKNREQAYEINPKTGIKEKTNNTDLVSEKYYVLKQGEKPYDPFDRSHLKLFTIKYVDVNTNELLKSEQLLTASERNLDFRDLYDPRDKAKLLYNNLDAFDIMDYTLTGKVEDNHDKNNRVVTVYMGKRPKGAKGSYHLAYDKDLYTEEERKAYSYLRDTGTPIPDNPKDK

[8] = Luminescence Cell-Based Dose Retest to Confirm Inhibitors of Cancer Stem Cells. [Related pubchem assays (depositor defined):AID2717, AID2721]; assay type: functional; conditions: Homo sapiens
[9] = tested on: Streptococcus; test: GAS UMAA2166 growth inhibition – luminescence, BacTiterGlo, counter-screen for streptokinase expression inhibitor project, dose response (AID 1915); assay type: functional, organism-based;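 also: potency for reduction of bacterial viability or growth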
[10] = tested on: Streptococcus sp. 'group A'; test: Streptococcus pyogenes SK(-)GAS viability under kanamycin – luminescence, BacTiterGlo, confirmation, counter-screen for streptokinase expression inhibitor project, dose response (AID 1900); assay type: functional, organism-based
[11] = target: T4, Rac GTPase-activating protein 1 (Homo sapiens, UniProt Q9H0H5); test: blockers of MgcRacGAP-driven Rac1 GTP hydrolysis – biochemical, ADP Hunter fluorescence, primary and confirmatory, confirmation (AID 624330); assay type: functional
T4 sequence (Q9H0H5 whole entry): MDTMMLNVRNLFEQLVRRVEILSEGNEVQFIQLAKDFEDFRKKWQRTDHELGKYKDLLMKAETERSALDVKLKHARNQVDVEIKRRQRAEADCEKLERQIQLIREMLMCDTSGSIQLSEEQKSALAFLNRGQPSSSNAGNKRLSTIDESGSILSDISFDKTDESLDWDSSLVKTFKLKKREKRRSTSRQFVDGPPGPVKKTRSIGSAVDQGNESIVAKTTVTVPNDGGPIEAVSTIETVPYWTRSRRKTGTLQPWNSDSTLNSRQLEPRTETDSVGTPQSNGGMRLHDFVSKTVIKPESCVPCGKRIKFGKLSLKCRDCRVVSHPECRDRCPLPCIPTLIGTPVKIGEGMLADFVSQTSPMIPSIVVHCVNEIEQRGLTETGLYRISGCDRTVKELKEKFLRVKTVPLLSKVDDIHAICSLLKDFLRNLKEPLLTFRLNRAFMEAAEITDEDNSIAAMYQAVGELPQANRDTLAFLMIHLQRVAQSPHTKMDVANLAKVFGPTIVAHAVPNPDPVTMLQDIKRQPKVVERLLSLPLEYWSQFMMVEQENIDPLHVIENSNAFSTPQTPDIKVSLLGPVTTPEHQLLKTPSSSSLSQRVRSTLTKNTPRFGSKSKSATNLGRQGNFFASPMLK

[12] = target: Cytochrome P450 3A4 (Homo sapiens, UniProt P08684);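 also: CYP3A4 tested as one member of a cytochrome P450 panel screen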
[13] = NIH3T3 cell viability loss – ATP luminescence, mouse fibroblasts, counter-screen, dose response (AID 2010); assay type: functional, cell-based; conditions: NIH3T3;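 also: cells exposed to compound for about 90 hours before reading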
[14] = Trypanosoma cruzi growth suppression in host cells – NIH3T3 host cells, beta-gal luminescence, confirmation (AID 2044); assay type: functional, cell-based;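 also: intracellular parasites grown in NIH/3T3 mouse fibroblasts as host cells; luminescent beta-galactosidase reporter signal from transgenic T. cruzi replicating inside host cells; inhibitors lower the luminescence signal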
[15] = target: Paired box protein Pax-8 (Homo sapiens, UniProt Q06710); test: PAX8 transcriptional activity inhibition in RMG-I – RMG-I cells, luciferase, cherry-pick, dose response (AID 687027); assay type: functional, cell-based;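 also: luciferase reporter driven by Pax8 target thyroperoxidase promoter measured by SteadyGlo luminescence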
Sequence of Paired box protein Pax-8 (Q06710 whole entry): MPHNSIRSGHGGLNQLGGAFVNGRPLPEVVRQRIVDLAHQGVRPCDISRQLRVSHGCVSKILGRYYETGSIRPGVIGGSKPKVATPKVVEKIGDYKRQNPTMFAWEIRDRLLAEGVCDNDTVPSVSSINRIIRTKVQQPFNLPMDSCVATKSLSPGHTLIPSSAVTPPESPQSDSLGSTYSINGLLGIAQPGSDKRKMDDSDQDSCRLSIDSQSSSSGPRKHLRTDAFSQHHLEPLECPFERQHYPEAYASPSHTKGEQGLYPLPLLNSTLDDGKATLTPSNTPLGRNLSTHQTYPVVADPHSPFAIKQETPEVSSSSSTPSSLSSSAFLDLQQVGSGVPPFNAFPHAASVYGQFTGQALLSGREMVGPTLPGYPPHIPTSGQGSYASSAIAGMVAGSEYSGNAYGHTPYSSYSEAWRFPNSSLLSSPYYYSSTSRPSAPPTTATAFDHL

Sequence of Cytochrome P450 3A4 (P08684 whole entry): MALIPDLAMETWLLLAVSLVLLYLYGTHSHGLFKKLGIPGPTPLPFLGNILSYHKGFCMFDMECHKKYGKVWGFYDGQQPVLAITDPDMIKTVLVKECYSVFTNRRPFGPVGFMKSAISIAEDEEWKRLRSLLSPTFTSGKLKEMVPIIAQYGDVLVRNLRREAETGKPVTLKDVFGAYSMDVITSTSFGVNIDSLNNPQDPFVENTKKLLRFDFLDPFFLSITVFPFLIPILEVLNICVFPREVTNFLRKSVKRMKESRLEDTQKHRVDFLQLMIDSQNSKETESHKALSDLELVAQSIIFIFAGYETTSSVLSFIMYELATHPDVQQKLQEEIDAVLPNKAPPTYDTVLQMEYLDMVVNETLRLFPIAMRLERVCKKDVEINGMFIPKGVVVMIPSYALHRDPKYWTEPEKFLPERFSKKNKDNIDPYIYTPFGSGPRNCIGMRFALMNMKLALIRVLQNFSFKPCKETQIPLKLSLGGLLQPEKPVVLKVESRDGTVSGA

Cc1nc(NC(C)c2ccccc2)sc1C(=O)Nc1ccccc1 (stereo not given)
EC50 [1]: > 195 µM (not active)

Cc1ccc(CSCC(=O)N(C)CC(=O)Nc2ccc(C)cc2)cc1
EC50 [1]: > 195 µM (not active)

Cc1nc2ccc(S(=O)(=O)NC(C(=O)NCc3cccs3)C(C)C)cc2s1 (stereo not given)
EC50 [1]: > 195 µM (not active)

CCOC(=O)N1CCc2c(sc(NC(=O)CN(CC)CC)c2C#N)C1
IC50 [2]: > 20 µM (inactive)

Cc1cc(C(=O)CSc2nnnn2C)c(C)n1Cc1ccco1
EC50 [3]: > 120 µM (not active)
EC50 [4]: 5.73 µM (active)

CCc1ccc(C2CC(c3cccc(Cl)c3)n3nc(N)nc3N2)cc1 (stereo not given)
AC50 [5]: > 120 µM (inactive)

CCCCOC(=O)CCCc1ccc([N+](=O)[O-])cc1[N+](=O)[O-]
EC50 [6]: > 260 µM (inactive)

O=C(CCC(=O)c1ccc(Br)cc1)Nc1cccnc1
EC50 [1]: > 195 µM (not active)

COc1ccc(C(=O)c2c[nH]cc2-c2ccccc2)cc1
EC50 [1]: > 195 µM (not active)

O=C(OCc1ccccc1F)c1ccc2c(c1)OCCO2
EC50 [3]: 5.23 µM (active)
EC50 [4]: 1.38 µM (active)

Cc1c(C)n(Cc2ccccc2)c2ncnc(N)c12
IC50 [2]: > 20 µM (inactive)

CCC(CC)c1nc(C#N)c(NCc2ccccc2)o1
EC50 [1]: 107 µM (active)

CCCSc1nsc(NC(=O)C(c2ccccc2)c2ccccc2)n1
EC50 [7]: 11.3 µM (active)
AC50 [8]: 2.87 µM (active)
EC50 [9]: 6.12 µM (active)
EC50 [10]: 2.73 µM (active)

COc1ccc(N2CCN(S(=O)(=O)c3cc4c(cc3C)N(C(C)=O)CCO4)CC2)cc1
EC50 [1]: > 195 µM (not active)

Cc1noc(-c2ccc(C(F)(F)F)cc2)c1NC(=O)Nc1ccc(Cl)cc1
AC50 [5]: 6.96 µM (active)

N#CC1=C(S)N(c2ccccc2)C(c2ccc(-c3cccc(Cl)c3)o2)NC1=O (stereo not given)
IC50 [11]: 181 µM (active)

COc1ccc(C2Nc3ccccc3C(=O)N2c2ccc(C)cc2)cc1Cn1nnc2ccccc21 (stereo not given)
EC50 [3]: 50.7 µM (active)
EC50 [4]: 4.2 µM (active)

Cc1ccc(NC(=O)CN2CCN(C)CC2)cc1Br
IC50 [11]: 98.5 µM (active)

O=C1CC(Nc2ccccc2)=NN1c1ccccc1
AC50 [12]: 28.2 µM (inconclusive)
AC50 [8]: 3.96 µM (active)

CCCCCCc1cc2cc(C(=O)Nc3ccccc3)c(=O)oc2cc1O
AC50 [5]: 3.15 µM (active)
AC50 [8]: 0.257 µM (active)

CN(C(=O)CCNC(=O)Cn1cnc2ccccc2c1=O)c1ccccc1F
EC50 [1]: > 195 µM (not active)

Cc1ccc(NC(=S)NNC(=O)c2nnn(-c3ccccc3)c2C)cc1
IC50 [2]: > 20 µM (inactive)

COc1ccc(Br)cc1CNC(=O)CCN1C(=O)COc2ccccc21
EC50 [1]: > 195 µM (not active)

NN=C(S)Nc1ccccc1Cl
EC50 [1]: > 195 µM (not active)

COc1ccccc1N1CCN(Cc2cccc(OC)c2O)CC1
EC50 [6]: > 260 µM (inactive)

COc1cccc(-c2nn(-c3ccccc3)cc2C(=O)n2nnc3ccccc32)c1
EC50 [6]: 4.15 µM (active)

CC1(C)CC2=Nc3cc4c(cc3C(c3ccc5c(c3)OCO5)C2=C(O)C1)OCO4 (stereo not given)
EC50 [6]: 72 µM (active)

COC(=O)c1cc(S(=O)(=O)NCc2ccc(F)cc2)cn1C
EC50 [1]: > 195 µM (not active)

CCCNCC1C(Oc2ccc(Cl)cc2Cl)C(=O)N1c1cccc(C)c1C (stereo not given)
EC50 [13]: > 60 µM (not active)
EC50 [14]: 3.52 µM (active)
AC50 [8]: 5.78 µM (active)

c1ccc(CN2CCN(CCOCCOc3ccc4c(c3)CCC4)CC2)cc1
IC50 [11]: 53.6 µM (active)

O=C(Nc1cccc(O)c1)c1cc(-c2ccccc2Cl)on1
EC50 [1]: > 195 µM (not active)

COc1ccc(NC(=O)c2[nH]cnc2C(=O)NCc2ccccc2)cc1
IC50 [2]: > 20 µM (inactive)

Cc1nn(Cc2ccc(Cl)cc2)c(C)c1NC(=O)c1cc(-c2ccc3c(c2)OCO3)on1
EC50 [13]: 3.87 µM (active)
EC50 [14]: 1.99 µM (active)
AC50 [8]: 0.486 µM (active)

Sc1nnc2ccccn12
IC50 [11]: 34 µM (active)

COC(=O)[C@@H](Cc1ccccc1)N(Cc1ccccc1)S(=O)(=O)N(Cc1ccccc1)[C@H](Cc1ccccc1)C(=O)OC
AC50 [5]: 3.91 µM (active)

CCOC(=O)c1c(S(=O)(=O)NCC2CCN(CCc3cccs3)CC2)c(C)n(C)c1C
EC50 [6]: > 260 µM (inactive)

CSc1ccccc1NC(=O)CN(C)C(C)C(=O)NCc1ccc2c(c1)OCO2 (stereo not given)
IC50 [11]: 46.7 µM (active)

COC(=O)N1C(c2ccccc2)C1c1ccccc1 (stereo not given)
EC50 [6]: > 260 µM (inactive)

CSCCC(NC(=O)c1ccccc1Br)C(=O)NNC(=O)c1csc(N2CCOCC2)n1 (stereo not given)
IC50 [2]: > 20 µM (inactive)

COc1cc(OC)cc(-c2sc3ccc(OC)cc3c2-c2ccc(O)cc2)c1
AC50 [8]: 2.46 µM (active)

NC(=O)c1ccccc1OC1CCC1
AC50 [5]: > 260 µM (inactive)

O=C(N/N=C/c1cc(Br)c(O)c(Br)c1O)c1ccc2c(c1)OCCO2
AC50 [5]: 3.1 µM (active)

O=C(N/N=C/c1ccc(O)cc1)c1[nH]c2ccc(Br)cc2c1-c1ccccc1
EC50 [1]: 11.4 µM (active)
AC50 [15]: 4.43 µM (active)

COc1cc(/C=N/Nc2ccccn2)cc(OC)c1O
IC50 [11]: 35 µM (active)

CCOc1cc(/C=N/NC(=O)C(=O)N2CCCC2)ccc1O
IC50 [11]: 56.3 µM (active)

CCCCCCCCCCS(=O)(=O)N/N=C/c1ccc([N+](=O)[O-])cc1
AC50 [8]: 8.29 µM (active)

Cc1cc(NC(=O)c2sc3ccccc3c2O)no1
IC50 [11]: 75.2 µM (active)
